Laboratory results as given in patent US10689383B2, “Optionally fused heterocyclyl-substituted derivatives of pyrimidine useful for the treatment of inflammatory, metabolic, oncologic and autoimmune diseases” (NUEVOLUTION A/S, priority 2014, dated 2020).

Assays:
[1] = target: T1, human RORγt (Ligand Binding Domain) (Homo sapiens, UniProt P51449); experiment: Fluorescence Polarization (FP) Assay; conditions: Fluorescence Polarization (FP) Assay; values given as upper bounds of activity ranges; read-out: FP activity range
T1 construct: purchased Crelux (Planegg, Germany) batch no PC5032-1
T1 sequence (P51449 269-508 limits assumed): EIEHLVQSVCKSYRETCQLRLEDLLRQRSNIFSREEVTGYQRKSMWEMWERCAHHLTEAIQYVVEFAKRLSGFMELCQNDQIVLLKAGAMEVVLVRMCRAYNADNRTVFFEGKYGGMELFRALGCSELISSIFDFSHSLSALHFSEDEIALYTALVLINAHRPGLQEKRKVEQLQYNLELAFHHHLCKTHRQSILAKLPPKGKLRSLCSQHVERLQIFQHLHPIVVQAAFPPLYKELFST
Method in brief: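 In vitro FP binding assay monitoring ligand binding within the ligand binding pocket. Probe is a TAMRA-labelled RORγt ligand (MW 910 g/mole); DMSO served as negative control.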

[2] = target: T2, yeast Gal4-DNA binding domain fused to the ligand binding domain of human RORγ (Homo sapiens, UniProt P51449); experiment: RORγ Reporter Assay (Gal4); type: cell-based; conditions: values given as lower bounds of ranges; for Gal4 activity range @ 0.1 μM (% inhibition): RORγ Reporter Assay (Gal4) at 0.1 μM; for Gal4 activity range @ 1 μM (% inhibition): RORγ Reporter Assay (Gal4) at 1 μM
T2 construct: host or cells: HEK293t
T2 sequence (P51449 269-508 limits assumed): T1 sequence (P51449 269-508 limits assumed)
Experimental: The activity of the compounds was evaluated using a Fluorescence Polarization (FP) Assay and, in most cases, a Th17 Assay and/or RORγ Reporter assay (also referred to as Gal4 assay). The FP assay is an in vitro assay monitoring binding within the ligand binding pocket. The RORγ and the Th17 assays are both cell-based assays monitoring functional activity of the compound assayed.
Cell-based RORγ functional assays were performed using a commercially available assay product (INDIGO Biosciences, State College, Pa., USA; product # IB04001). The RORγ reporter cells are HEK293t cells transfected with one vector that provides high level constitutive expression of a hybrid protein comprised of the yeast Gal4-DNA binding domain fused to the ligand binding domain of human RORγ, and a second vector comprising the firefly luciferase cDNA functionally linked to the upstream activation sequence (UAS) of yeast Gal4. A suspension of RORγ Reporter Cells was prepared using the protocol and culture medium provided in the kit product, and 100 μl of the Reporter Cell suspension was then dispensed into wells of a white, collagen-treated, 96-well assay plate. Concentrated stocks of test compounds were prepared in DMSO, then further diluted using media provided in the kit to generate ‘2×-concentration’ treatment media. 100 μl of medium for each respective treatment concentration dispensed into triplicate assay wells, thereby combining with the reporter cells. All media formulations contained 10% charcoal stripped Fetal Bovine Serum, but are otherwise proprietary to INDIGO Biosciences. Final treatment concentrations for each test compound were 1,000 nM and 100 nM, each with 0.1% residual DMSO. Separate control treatments were media supplemented with vehicle only (0.1% DMSO) to determine the constitutive level of RORγ activity in the reporter cells, and the reference inverse-agonist ursolic acid (f.c. 6,000 nM to 8.2 nM in 3-fold decrements) to establish a positive control inverse-agonist dose response. Assay plates were placed in a 37° C., 5% CO2, 85% humidity incubator for 24 hour. Treatment media were then discarded, 100 μl of luciferase detection reagent was added to each well, and relative light units (RLUs) were quantified from each assay well using a plate reading luminometer. Values of average RLU+/−standard deviation were computed for all treatment sets, followed by the calculations of fold-reduction: [Average RLUVehicle/Average RLUTest Cmpd]. Percent-reduction of RORγ activity in response to respective test compound treatments was calculated: [100*(1−[Ave RLUTest Cmpd/Ave RLUVehicle)] where the theoretical minimum reduction (0% reduction) derives from Vehicle treatment only, no treatment compound.

| Structure (SMILES) | IC50 [1] | Gal4 activity range @ 0.1 μM (% inhibition) [2] | Gal4 activity range @ 1 μM (% inhibition) [2] |
| --- | --- | --- | --- |
| O=C(O)Cc1ccc(CNc2ncnc(N3CCOCC3c3ccc(C(F)(F)F)cc3)c2F)cc1 (centres unmarked) [Example 119, 2-[4-[[[5-fluoro-6-[3-[4-(trifluoromethyl)phenyl]morpholin-4-yl]pyrimidin-4-yl]amino]methyl]phenyl]acetic acid] | < 1000 nM | >20 % inhibition | >80 % inhibition |
| OC1(CNc2ncnc(N3CCC[C@@H]3c3ccc(C(F)(F)F)cc3)c2F)CCOC1 (stereo partly drawn) [Example 220, 3-[[[5-fluoro-6-[(2R)-2-[4-(trifluoromethyl)phenyl]pyrrolidin-1-yl]pyrimidin-4-yl]amino]methyl]tetrahydrofuran-3-ol] | < 500 nM | >20 % inhibition | >80 % inhibition |
| CC(C)CC(Nc1ncnc(N2CCCC2c2ccc(C(F)(F)F)cc2)c1F)c1nnn[nH]1 (centres unmarked) [Example 123, 5-fluoro-N-[3-methyl-1-(1H-tetrazol-5-yl)butyl]-6-[2-[4-(trifluoromethyl)phenyl]pyrrolidin-1-yl]pyrimidin-4-amine] | < 10000 nM | >0 % inhibition | >20 % inhibition |
| CC1(c2ccc(C(F)(F)F)cc2)CCCN1c1ncnc(NCc2ccc(CC(N)=O)cc2)c1F (centres unmarked) [Example 229, 2-[4-[[[5-fluoro-6-[2-methyl-2-[4-(trifluoromethyl)phenyl]pyrrolidin-1-yl]pyrimidin-4-yl]amino]methyl]phenyl]acetamide] | < 500 nM | >50 % inhibition | >80 % inhibition |
| CNC(=O)Cc1ccc(CNc2ncnc(N3CCC[C@@H]3c3ccc(C(F)(F)F)cc3)c2F)cc1 [Example 189, 2-[4-[[[5-fluoro-6-[(2R)-2-[4-(trifluoromethyl)phenyl]pyrrolidin-1-yl]pyrimidin-4-yl]amino]methyl]phenyl]-N-methyl-acetamide] | < 500 nM | >20 % inhibition | – |
| CC1(CNc2ncnc(N3CCC[C@@H]3c3ccc(C(F)(F)F)cc3)c2F)CCOCC1 [Example 161, 5-fluoro-N-[(4-methyltetrahydropyran-4-yl)methyl]-6-[(2R)-2-[4-(trifluoromethyl)phenyl]pyrrolidin-1-yl]pyrimidin-4-amine] | < 500 nM | >20 % inhibition | – |
| O=S1(=O)CCC(O)(CNc2ncnc(N3CCC[C@@H]3c3ccc(C(F)(F)F)cc3)c2F)CC1 [Example 223, 4-[[[5-fluoro-6-[(2R)-2-[4-(trifluoromethyl)phenyl]pyrrolidin-1-yl]pyrimidin-4-yl]amino]methyl]-1,1-dioxo-thian-4-ol] | < 500 nM | >50 % inhibition | >80 % inhibition |
| O=C(O)CC1CCC(CNc2ncnc(N3CCOC[C@@H]3c3ccc(C(F)(F)F)cc3)c2F)CC1 (stereo partly drawn) [Example 205, 2-[4-[[[5-fluoro-6-[(3S)-3-[4-(trifluoromethyl)phenyl]morpholin-4-yl]pyrimidin-4-yl]amino]methyl]cyclohexyl]acetic acid] | < 500 nM | >50 % inhibition | >80 % inhibition |
| NC(=O)CC1CCC(CNc2ncnc(N3CCOC[C@@H]3c3ccc(C(F)(F)F)cc3)c2F)CC1 (stereo partly drawn) [Example 206, 2-[4-[[[5-fluoro-6-[(3S)-3-[4-(trifluoromethyl)phenyl]morpholin-4-yl]pyrimidin-4-yl]amino]methyl]cyclohexyl] acetamide] | < 1000 nM | >20 % inhibition | >80 % inhibition |
| OC1(CNc2ncnc(N3CCC[C@@H]3c3ccc(C(F)(F)F)cc3)c2F)CCCCCC1 [Example 167, 1-[[[5-fluoro-6-[(2R)-2-[4-(trifluoromethyl)phenyl]pyrrolidin-1-yl]pyrimidin-4-yl]amino]methyl]cycloheptanol] | < 500 nM | >0 % inhibition | – |
| COc1ccc(C2CCCN2c2ncnc(NCc3ccc(C)nc3)c2F)cc1 (centres unmarked) [Example 90, 5-fluoro-6-[2-(4-methoxyphenyl)pyrrolidin-1-yl]-N-[(6-methyl-3-pyridyl)methyl]pyrimidin-4-amine] | < 1000 nM | >0 % inhibition | >20 % inhibition |
| CC(=O)N1CCC(CNc2ncnc(N3CCC[C@@H]3c3ccc(C(F)(F)F)cc3)c2F)CC1 [Example 191, 1-[4-[[[5-fluoro-6-[(2R)-2-[4-(trifluoromethyl)phenyl]pyrrolidin-1-yl]pyrimidin-4-yl]amino]methyl]-1-piperidyl]ethanone] | < 500 nM | >50 % inhibition | >80 % inhibition |
| CC(OC(C)(C)C)[C@@H](Nc1ncnc(N2CCCC2c2ccc(C(F)(F)F)cc2)c1F)C(N)=O (stereo partly drawn) [Example 51, (2R)-3-tert-butoxy-2-[[5-fluoro-6-[2-[4-(trifluoromethyl)phenyl]pyrrolidin-1-yl]pyrimidin-4-yl]amino]butanamide] | < 1000 nM | – | >80 % inhibition |

The remaining lines, values ahead:

| IC50 [1] | Gal4 activity range @ 0.1 μM (% inhibition) [2] | Gal4 activity range @ 1 μM (% inhibition) [2] | Structure (SMILES) |
| --- | --- | --- | --- |
| < 500 nM | >50 % inhibition | >80 % inhibition | CS(=O)(=O)CC1(CNc2ncnc(N3CC(F)(F)CC3c3ccc(C(F)(F)F)cc3)c2F)CCOCC1 (centres unmarked) [Example 260, 6-[4,4-difluoro-2-[4-(trifluoromethyl)phenyl]pyrrolidin-1-yl]-5-fluoro-N-[[4-(methylsulfonylmethyl)tetrahydropyran-4-yl]methyl]pyrimidin-4-amine] |
| < 500 nM | >80 % inhibition | >80 % inhibition | CS(=O)(=O)CC1(CNc2ncnc(N3CCC[C@@H]3c3ccc(C(F)(F)F)cc3)c2F)CCOCC1 [Example 240, 5-fluoro-N-[[4-(methylsulfonylmethyl)tetrahydropyran-4-yl]methyl]-6-[(2R)-2-[4-(trifluoromethyl)phenyl]pyrrolidin-1-yl]pyrimidin-4-amine] |
| < 500 nM | >50 % inhibition | >80 % inhibition | O=S(=O)(N1CCC(CNc2ncnc(N3CCOC[C@@H]3c3ccc(C(F)(F)F)cc3)c2F)CC1)C(F)(F)F [Example 263, 5-fluoro-6-[(3S)-3-[4-(trifluoromethyl)phenyl]morpholin-4-yl]-N-[[1-(trifluoromethylsulfonyl)-4-piperidyl]methyl]pyrimidin-4-amine] |
| < 500 nM | >20 % inhibition | >80 % inhibition | Fc1c(NCc2ccc(Cc3nnn[nH]3)cc2)ncnc1N1CCOC[C@@H]1c1ccc(OC(F)(F)F)cc1 [Example 246, 5-fluoro-N-[[4-(1H-tetrazol-5-ylmethyl)phenyl]methyl]-6-[(3S)-3-[4-(trifluoromethoxy)phenyl]morpholin-4-yl]pyrimidin-4-amine] |
| < 2000 nM | >20 % inhibition | >50 % inhibition | NC(=O)Cc1ccc(CNc2ncnc(N3CCC3c3ccc(C(F)(F)F)cc3)c2F)cc1 (centres unmarked) [Example 307, 2-[4-[[[5-fluoro-6-[2-[4-(trifluoromethyl)phenyl]azetidin-1-yl]pyrimidin-4-yl]amino]methyl]phenyl]acetamide] |
| < 2000 nM | >0 % inhibition | >50 % inhibition | CC1(CNc2ncnc(N3CCOC[C@@H]3c3ccc(C(F)(F)F)cc3)c2F)COC1 [Example 235, 5-fluoro-N-[(3-methyloxetan-3-yl)methyl]-6-[(3S)-3-[4-(trifluoromethyl)phenyl]morpholin-4-yl]pyrimidin-4-amine] |
